As usually defined, the MIC is the smallest concentration in the dilution series that meets the test's criterion for growth inhibition. Lower therefore signals inhibition by little substance. By IC50 is commonly meant the concentration that inhibits the measured activity by half.

One assay concerns Escherichia coli. The assay can be described thus: Antimicrobial activity against Escherichia coli after 48 hrs by paper disk diffusion assay. It is filed as functional. In general terms: In agar diffusion tests the substance spreads into inoculated agar from a disc or well.
A further assay concerns Globisporangium ultimum. Nature of the assay: Antimicrobial activity against Pythium ultimum after 48 hrs by paper disk diffusion assay. It is filed as functional.
For another assay, the system named is Rhizomucor miehei. The assay can be described thus: Antimicrobial activity against Mucor miehei after 48 hrs by paper disk diffusion assay. The format is functional.
The next assay deals with Bacillus subtilis. The assay can be described thus: Antimicrobial activity against Bacillus subtilis after 48 hrs by paper disk diffusion assay. The format is functional.
In a further assay the test system is Staphylococcus aureus. Nature of the assay: Antimicrobial activity against Staphylococcus aureus after 48 hrs by paper disk diffusion assay. The format is functional.
A short description of assay [1]: Inhibition of serum-opsonized zymosan-induced oxidative burst in whole blood (unknown origin). It is filed as functional, tissue-based.
In a further assay the test system is Candida albicans. The assay can be described thus: Antimicrobial activity against Candida albicans after 48 hrs by paper disk diffusion assay. It is filed as functional.
Another assay relates to Rhizoctonia solani. The assay can be described thus: Antimicrobial activity against Rhizoctonia solani after 48 hrs by paper disk diffusion assay. The format is functional.
Assay [2] in a line: Cytotoxicity against human PC3 cells after 3 days by MTT assay. It is filed as functional, cell-based. The settings on record: PC-3, 72 h. (In general: Tetrazolium assays rely on reduction of a dye to a coloured formazan, in cell work by metabolically active cells.)
In a further assay the test system is Aphanomyces cochlioides. Nature of the assay: Antimicrobial activity against Aphanomyces cochlioides after 48 hrs by paper disk diffusion assay. It is filed as functional.

In the case of `COc1ccc2c(=O)c3c(O)cc4c(c3n(C)c2c1C1(O)C(=O)c2cc(C)cc3ccc(=O)n1c23)C=CC(C)(C)O4` (configuration not stated), the MIC against Escherichia coli, against Globisporangium ultimum, against Rhizomucor miehei, against Bacillus subtilis, against Staphylococcus aureus and with Candida albicans was > 1 µg/mL in each case. The MIC against Rhizoctonia solani and with Aphanomyces cochlioides was > 1 µg/mL each time. Moreover, the IC50 was found to be 20.1 µM in [1] and 75.8 µM in assay [2].

For `Cc1cc2c3c(ccc(=O)n3C(O)(c3c(O)ccc4c(=O)c5c(O)cc6c(c5n(C)c34)C=CC(C)(C)O6)C2=O)c1` (configuration not stated), the minimum inhibitory concentration (MIC) with Escherichia coli, in the assay on Globisporangium ultimum, in the assay on Rhizomucor miehei, against Bacillus subtilis, with Staphylococcus aureus and with Candida albicans was > 1 µg/mL throughout. Moreover, the minimal inhibitory concentration (MIC) against Rhizoctonia solani and in the assay on Aphanomyces cochlioides was > 1 µg/mL in each case. Further, the IC50 in [1] came out at 17.2 µM; in assay [2], 71.5 µM.

On to `COc1cc(O)c(C=O)cc1OC`, for which the MIC in the assay on Escherichia coli, in the assay on Globisporangium ultimum, in the assay on Rhizomucor miehei, in the assay on Bacillus subtilis, in the assay on Staphylococcus aureus and in the assay on Candida albicans was > 1 µg/mL each time. Besides, the MIC with Rhizoctonia solani and in the assay on Aphanomyces cochlioides was > 1 µg/mL in each case. Moreover, the values for the half-maximal inhibitory concentration (IC50) in assay [1] and in assay [2] were 16.4 µM and 60.1 µM, respectively.

Take `COc1cccc2c(=O)c3c(O)cc4c(c3n(C)c12)C=CC(C)(C)O4`: the MIC against Escherichia coli, against Globisporangium ultimum, in the assay with Rhizomucor miehei, against Bacillus subtilis, against Staphylococcus aureus and in the assay with Candida albicans was > 1 µg/mL in each case. Also, the MIC against Rhizoctonia solani and in the assay with Aphanomyces cochlioides was > 1 µg/mL each time. Further, the values for the IC50 in assay [1] and in assay [2] were 4.5 µM and 70 µM, respectively.

Take `CC1(C)C=Cc2c(cc(O)c3c(=O)cc(-c4ccc(O)cc4)oc23)O1` [ATALANTOFLAVONE]: the MIC against Escherichia coli, against Globisporangium ultimum, against Rhizomucor miehei, in the assay with Bacillus subtilis, in the assay on Staphylococcus aureus and against Candida albicans was > 1 µg/mL throughout. Moreover, the minimal inhibitory concentration (MIC) in the assay on Rhizoctonia solani and with Aphanomyces cochlioides was > 1 µg/mL each time. Also, the concentration for half-maximal inhibition (IC50) is 10.5 µM in [1] and 55.6 µM in [2].

The compound `COc1cccc2c1C(=O)c1c(O)c3c(c(O)c1C2=O)C[C@@](O)(C(=O)CO)C[C@@H]3O[C@H]1C[C@H](N)[C@H](O)[C@H](C)O1` [DOXORUBICIN] returned an IC50 in assay [2] of 0.9 µM.

`CC(C)Cc1ccc(C(C)C(=O)O)cc1` (configuration not stated) [IBUPROFEN]: in assay [1], the IC50 came out at 11.2 µM.

For the compound `COc1c2ccoc2c(OC)c2oc(=O)ccc12` [ISOPIMPINELLIN], the MIC with Escherichia coli, in the assay on Globisporangium ultimum, in the assay on Rhizomucor miehei, against Bacillus subtilis, against Staphylococcus aureus and in the assay with Candida albicans was > 1 µg/mL in each case. The MIC against Rhizoctonia solani and in the assay on Aphanomyces cochlioides was > 1 µg/mL in each case. Further, the results for the IC50 in [1] and in assay [2] were 9.4 µM and 99.8 µM, respectively.

On to `COc1cc2ccc(=O)oc2cc1OC` [SCOPARONE], for which the MIC against Escherichia coli, in the assay on Globisporangium ultimum, in the assay on Rhizomucor miehei, in the assay on Bacillus subtilis, with Staphylococcus aureus and in the assay on Candida albicans was > 1 µg/mL throughout. In addition, the minimum inhibitory concentration (MIC) against Rhizoctonia solani and with Aphanomyces cochlioides was > 1 µg/mL each time. Also, the figures for the concentration for half-maximal inhibition (IC50) in assay [1] and in assay [2] were 11.4 µM and 54.4 µM, respectively.

Consider `COc1cc2oc(=O)ccc2cc1CC=C(C)C` [SUBEROSIN], for which the minimum inhibitory concentration (MIC) with Escherichia coli, against Globisporangium ultimum, with Rhizomucor miehei, against Bacillus subtilis, with Staphylococcus aureus and against Candida albicans was > 1 µg/mL throughout. In addition, the MIC against Rhizoctonia solani and with Aphanomyces cochlioides was > 1 µg/mL each time. In addition, the results for the half-inhibitory concentration (IC50) in assay [1] and in assay [2] were 18.3 µM and 51.3 µM, respectively.

The values above are taken from ChEMBL document CHEMBL3751690, “Oxidative burst inhibition, cytotoxicity and antibacterial acriquinoline alkaloids from Citrus reticulate (Blanco)” (Bioorg Med Chem Lett, 2016).
